Measured values reported in US20110318270A1, “DRUG IDENTIFICATION PROTOCOL FOR TYPE 2 DIABETES BASED ON GENE EXPRESSION SIGNATURES” (VERVA PHARMACEUTICALS LTD, priority 2009, published 2011).

Legend:
[1] = system: Diet-induced obese (DIO) mice; assay: Insulin sensitising effects of CAIs in diet-induced obese mice; type: in vivo; conditions: for reduction in the incremental area under the glucose curve (AUC) compared with vehicle-treated animals / glucose disposal: 50 mg/kg/day for 14 days, intraperitoneal glucose tolerance test
Experimental: Diet-induced obese (DIO) mice were treated with each CAI at 50 mg/kg/day for 14 days.

[2] = system: Diet-induced obese (DIO) mice; assay: as above; type: in vivo; conditions: for effect on glucose tolerance: 20-100 mg/kg/day for 14 days
[3] = system: TNFα-treated 3T3-L1 adipocytes; assay: TNFα-based GES small molecule library screen (MassARRAY, Zrcc score); type: cell-based; set-up: key: Zrcc: Z-score normalized for sample variation and gene contribution; conditions: 10 μM compound in final 24 h of 72 h TNFα (n=2); TTA n=29, TNF n=57
Experimental: In order to identify new insulin sensitizing agents, a small molecule library consisting of 1120 high-purity, off-patent chemical compounds was screened using the GES. First, 3T3 […] adipocytes were cultured in fourteen 96-well plates and incubated with 3 ng/ml TNFα for 72 h prior to the addition of 10 μM of each compound in the last 24 h of TNFα treatment. Four vehicle control, four TNFα and two TNFα plus ASA- and TGZ-treated wells serving as controls were included per 96-well plate. The aim of the screen was to identify compounds that caused the expression of the 7 gene GES to most closely resemble the expression levels observed in the insulin re-sensitized cells as this is likely to indicate that these cells have restored insulin sensitivity. Following RNA extraction and cDNA synthesis, gene expression analysis of the 7 gene GES was performed using the MassARRAY (Sequenom, San Diego, Calif.) [Cullinan and Cantor Pharmacogenomics 9:1211-1215, 2008]. Data are represented as a Z-score residual coefficient correlation (Zrcc); a Z-score that is normalised for sample to sample variation and for the relative contribution that each gene makes to the predictive power of the GES. Compounds were ranked based on their Zrcc score highest to lowest, and as an initial proof of concept validation test, the top ranked 30 compounds and 23 randomly chosen, mid-ranked compounds were subjected to 2-DOG uptake assays to determine their potential insulin sensitising effects. 3T3 […] adipocytes were incubated with 25 μM of each compound prior to performing 2-DOG uptake assays in the presence or absence of submaximal amounts of insulin (0.5 nM for 15 min).
The GES-ranked compounds were next broadly grouped into classes based on known mechanism of action or common structural features and re-represented as the mean Zrcc. Only compound classes with 10 or more members were considered further. As a result, the class of treatments that scored the highest, thus representing the most insulin sensitive cells, were the vehicle-treated cells with an average Zrcc score of 1.76±0.37; (p<0.0001 to TNFα treatment and p<0.002 to TNFαplus ASA and TGZ co-treatments).
In a CD63-only screen, TTA results with a negative score and TNF with a positive (p=0.02). Serving as internal controls in the screen, 3T3-L1 adipocytes were either treated with vehicle (0.2% w/v DMSO) for 72 h (n=55), 3 ng/ml TNFα for 72 h (TNF (n=57) or 3 ng/ml TNFα for 72 h plus 10 μM TGZ and 5 mM ASA in the final 24 h of the TNFα incubation (TTA) (n=29). The gene expression analysis of the GES was performed using the Mass ARRAY system (Cullinan and Cantor, 2008 supra). Data are calculated as a Z-score of the residual component following adjustment for total expression levels and incorporating the correlation coefficients derived from the Bayesian prediction model (Zrcc). The resulting metric is a Z-score that was normalized for sample to sample variation and for the relative contribution that each gene makes to the predictive power of the GES. Data are represented as mea Zrcc values±SEM (with p values compared with TNF-treated sample). The statistical analyses were performed using Student's t-Test assuming 2-tailed distribution and 2-sample equal variance.
In this assay, 3T3-L1 adipocytes were incubated with TNFα for 72 h followed by the addition of 10 μM of each compound in the final 24 h of the TNFα treatment (n=2). Compounds include VVP808, published insulin sensitizers furazolidone (FUR) (monoamine oxidase inhibitor), mesalamine (MES) and fosfosal (FOS) (NSAIDs), and estradiol-17-beta (EST), and known insulin resistance-inducing compounds such as ajmaline (AJM) (glucose uptake inhibitor) and corticosterone (COR) (glucocorticoid). Serving as internal controls in the screen, 3T3-L1 adipocytes were either treated with vehicle (0.2% DMSO) for 72 h (n=55), 3 ng/ml TNFα for 72 h) TNF) (n=57) or 3 ng/ml TNFα for 72 h plus 10 μM TGZ and […] ASA in the final 24 h of the TNFα incubation (TTA) (n=29). […]

3T3-L1 adipocytes [4] = assay: Reversal of TNFα-induced insulin resistance, 2-deoxyglucose (2-DOG) uptake; type: cell-based
Experimental: Initially, a model of TNFα-induced insulin resistance in 3T3-L1 adipocytes was established as described previously (Sartipy and Loskutoff J Biol Chem 278:52298-52306, 2003). Following exposure of 3T3-L1 adipocytes to 3 ng/ml TNFα for 72 h, insulin resistance was determined by the ability of the cells to take up 2-deoxyglucose (2-DOG) in response to insulin. TNFα caused a 37% decrease in 2-DOG uptake compared with insulin-stimulated vehicle-treated cells (p<0.0001) (Table 1).
3T3-L1 adipocytes were either treated with vehicle—(Veh), 3 ng/ml TNFα-(TNF) or 3 ng/ml TNFα plus 10 μM TGZ and 5 mM ASA (TTA) as detailed above. Cells were then treated with insulin (0 or 10 nM) for 30 min followed by measurement of 2-deoxyglucose (2-DOG) uptake over the final 10 min of insulin stimulation. Data are presented as % change in 2-DOG uptake compared with vehicle-treated, insulin-stimulated cells and represent mean values±SEM of >3 independent experiments and each data point was assayed in triplicate. […] The amount of 2-DOG transported in vehicle-treated adipocytes was 20.5±3.4 pmol/min/well. Statistical analyses were performed using Student's t-Test assuming 2-tailed distribution and 2-sample equal variance.

3T3-L1 adipocytes [5] = assay: HA-tagged GLUT4 translocation to the plasma membrane; type: cell-based; conditions: 10 μM for 20 h (ASA 5 mM), then 0.5 nM insulin
Experimental: FIGS. 2a and 2b are graphical representations of a compound stimulation of HA-tagged GLUT4 translocation to the plasma membrane in 3T3-L1 adipocytes. Adipocytes were incubated with 10 μM of each compound for 20 h prior to acute stimulation with 0.5 nM of insulin and measurement of HA-tagged GLUT4 translocation to the plasma membrane. a. The effect of the compound classes closest to TNFα plus ASA and TGZ co-incubated samples GES profile (see FIG. 1) on HA-tagged GLUT4 movement. Data are presented as fold change compared with 0.5 nM insulin alone set at 1.0 and represent mean values±SEM; n=12-40 per class. b. Individual CAI members effect on GLUT4 movement. […]
A secondary screen was next undertaken to test the 8 drug classes ranked most similar to the insulin re-sensitised TNFαplus ASA and TGZ co-treated samples to determine their ability to affect exogenous HA-tagged GLUT4 translocation to the plasma membrane in the presence of submaximal 0.5 nM insulin (Govers et al. Mol Cell Biol 24:6456-6466, 2004). Members from the sodium channel blockers, beta lactams, GABA antagonists, sulfamide antifolates, lipoxygenase inhibitors, dopamine antagonists, carbonic anhydrase inhibitors (CAIs) and antibiotics were incubated at 10 μM doses for 20 h and the overall effect of each class member was assessed and averaged.

db/db mice = conditions: for change in blood glucose levels compared with vehicle-treated animals: 300 mg/kg metformin or 20 mg/kg MTZ for 8 d
Experimental: Mice treated with MTZ (50 mg/kg/d) for 14 d were placed into metabolic cages for 24 h.

Compound | reduction in the incremental area under the glucose curve (AUC) compared with vehicle-treated animals / glucose disposal [1] | Mean Zrcc_GES ± SEM, CLU single gene [3] | Mean Zrcc_GES ± SEM, CS single gene [3] | Mean Zrcc_GES ± SEM, STEAP4 single gene [3] | further results
Nc1ccccc1S(N)(=O)=O [2ABS, 2-aminobenzene sulphonamide] | did not affect glucose disposal | – | – | – | effect on glucose tolerance [2]: no significant effect
CC[C@H]1[C@@H]2C[C@H]3[C@@H]4N(C)c5ccccc5[C@]45C[C@@H]([C@H]2[C@H]5O)N3[C@@H]1O [AJM, ajmaline] | – | −0.2 | −0.5 | 0.6 | –
CC(=O)Oc1ccccc1C(=O)O [ASA, aspirin] | – | – | – | – | reversal of TNFα impairment of insulin-stimulated 2-DOG uptake (3T3-L1 adipocytes [4]; 5 mM ASA and/or 10 μM TGZ in final 24 h of 72 h TNFα treatment): fully reversed TNFα effects; HA-GLUT4 translocation above submaximal insulin (3T3-L1 adipocytes [5]): increased
C[C@]12C[C@H](O)[C@H]3[C@@H](CCC4=CC(=O)CC[C@@]43C)[C@@H]1CC[C@@H]2C(=O)CO [COR, corticosterone] | – | 0.5 | −0.5 | −0.2 | –
NS(=O)(=O)c1cc(C2(O)NC(=O)c3ccccc32)ccc1Cl (stereo not shown) [CTD, chlorthalidone] | did not affect glucose disposal | – | – | – | effect on glucose tolerance [2]: no significant effect
NS(=O)(=O)c1cc(Cl)c(Cl)c(S(N)(=O)=O)c1 [DCP, dichlorphenamide] | did not affect glucose disposal | – | – | – | effect on glucose tolerance [2]: no significant effect
O=C(O)c1ccccc1OP(=O)(O)O [FOS, fosfosal] | – | 0.6 | −0.05 | 0.3 | –
O=C1OCCN1/N=C/c1ccc([N+](=O)[O-])o1 [FUR, furazolidone] | – | 0.4 | −0.2 | 0.7 | –
Nc1ccc(O)c(C(=O)O)c1 [MES, mesalamine] | – | −0.9 | 3.1 | −0.4 | –
CNS(=O)(=O)c1nn(C)c(=NC(C)=O)s1 [MMTZ, N-methyl-methazolamide] | not observed | – | – | – | –
CC(=O)/N=c1/sc(S(N)(=O)=O)nn1C [MTZ, methazolamide] | 27% | – | – | – | time of administration after which the fasting glucose effect peaked (db/db mice; db/db mice): 7 days; time of administration after which the fasting glucose effect was seen (db/db mice; db/db mice): 3 days; lower HbA1c levels (db/db mice; db/db mice, 50 mg/kg for 28 days, vs vehicle): up to 23%; reduction of glucose urine concentration compared with vehicle-treated mice (db/db mice; db/db mice, 50 mg/kg/d for 14 d, metabolic cages 24 h): 18%; change in blood glucose levels compared with vehicle-treated animals (db/db mice; db/db mice): significantly lower change; fasting glucose levels (db/db mice; db/db mice, 20 or 50 mg/kg/d for 14 days): dose-dependent decrease; body weight, food or water intake (db/db mice; mouse, in vivo, 20 mg/kg): No change; decrease in food intake (db/db mice; mouse, in vivo, 50 mg/kg): 27%; food intake (db/db mice; mouse, in vivo, 50 mg/kg): 4.8 ± 0.5 g/day; change in fasting blood glucose after the treatment period (db/db mice; pair-fed db/db mice, 8 days, n=6/group): -6.2 ± 1.5 mM; body weight, food and water intake or epididymal fat mass compared with vehicle-treated mice [1]: without significant changes; 24 h urine output and creatine excretion ([1]; vs vehicle-treated): not significantly altered; plasma insulin levels ([2]; 14 days, dose range): dose-dependent decrease; circulating glucose levels compared with vehicle-treated mice ([2]; concentrations above 20 mg/kg, 14 days): significant reduction
CC(=O)/N=c1/sc(S(N)(=O)=O)nn1C [compound 808] | – | −0.4 | 0.2 | 0.5 | –
NS(=O)(=O)c1cc(C(=O)O)c(NCc2ccco2)cc1Cl [furosemide] | – | – | – | – | effect on glucose tolerance [2]: no significant effect
CN(C)C(=N)N=C(N)N [metformin] | – | – | – | – | change in blood glucose levels compared with vehicle-treated animals (db/db mice; db/db mice): significantly lower change
Acute Insulin: insulin, 10 nM for 30 min | – | – | – | – | 2-DOG Uptake (% of insulin-stimulated alone) (3T3-L1 adipocytes [4]; insulin 10 nM 30 min, TNFα 3 ng/ml 72 h, 10 μM TGZ & 5 mM ASA final 24 h, mean ± SEM): 100.0 ± 9.7%; fold increase in 2-DOG uptake above basal level (3T3-L1 adipocytes [4]; vehicle-treated, insulin-stimulated adipocytes (10 nM, 30 min)): 6.6±0.6 fold
estradiol-17-beta | – | 0.5 | 0.04 | 0.3 | –
